“And” between values parts separate entries of the source, which are not always exact repeats. Equal entries are not always repeated. Toxic doses and inconclusive results are not listed. No stated cut-off is given here; in the data, active means T/C of 150% or more; inactive means T/C below 125%.
System: L1210 leukemia ip in BDF1 mice, survival T/C
Experiment: NCI In Vivo Anticancer Drug Screen. Data for tumor model L1210 Leukemia (intraperitoneal) in B6D2F1 (BDF1) mice
Details: endpoint: mean survival time, higher = longer survival
Summary of the method: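 Mice bearing the transplanted tumor received compound or vehicle. Survival of the treated group was divided by that of the vehicle-treated control group to give the ratio.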

[1] = dose: 100.0 mg/kg/injection, schedule: Q04DX003 (ip), vehicle: saline with Tween-80
[2] = dose: 200.0 mg/kg/injection, schedule: Q04DX003 (ip), vehicle: saline with Tween-80
[3] = dose: 400.0 mg/kg/injection, schedule: Q04DX003 (ip), vehicle: saline with Tween-80
[4] = dose: 100.0 mg/kg/injection, schedule: Q01DX009 (ip), vehicle: saline with Tween-80
[5] = dose: 200.0 mg/kg/injection, schedule: Q01DX009 (ip), vehicle: saline with Tween-80
[6] = dose: 400.0 mg/kg/injection, schedule: Q01DX009 (ip), vehicle: saline with Tween-80
[7] = dose: 100.0 mg/kg/injection, schedule: Q04DX003 (ip), vehicle: saline
[8] = dose: 200.0 mg/kg/injection, schedule: Q04DX003 (ip), vehicle: saline
[9] = dose: 400.0 mg/kg/injection, schedule: Q04DX003 (ip), vehicle: saline
[10] = dose: 100.0 mg/kg/injection, schedule: Q01DX001 (ip), vehicle: carboxymethylcellulose (CMC)
[11] = dose: 100.0 mg/kg/injection, schedule: Q01DX009 (ip), vehicle: Klucel (hydroxypropylcellulose) (HPC)
[12] = dose: 200.0 mg/kg/injection, schedule: Q01DX001 (ip), vehicle: carboxymethylcellulose (CMC)
[13] = dose: 200.0 mg/kg/injection, schedule: Q01DX009 (ip), vehicle: Klucel (hydroxypropylcellulose) (HPC)
[14] = dose: 400.0 mg/kg/injection, schedule: Q01DX001 (ip), vehicle: carboxymethylcellulose (CMC)
[15] = dose: 400.0 mg/kg/injection, schedule: Q01DX009 (ip), vehicle: Klucel (hydroxypropylcellulose) (HPC)
[16] = dose: 100.0 mg/kg/injection, schedule: Q01DX001 (ip), vehicle: saline
[17] = dose: 200.0 mg/kg/injection, schedule: Q01DX001 (ip), vehicle: saline
[18] = dose: 400.0 mg/kg/injection, schedule: Q01DX001 (ip), vehicle: saline

Measured: T/C

O=C(/C=C/c1ccccc1)NC(=S)Nc1cccc2ccccc12
inactive: dose: 25.0 mg/kg/injection, schedule: Q01DX009 (ip), vehicle: saline with Tween-80 96 % of control and 90 % of control | dose: 50.0 mg/kg/injection, schedule: Q01DX009 (ip), vehicle: saline with Tween-80 94 % of control | dose: 100.0 mg/kg/injection, schedule: Q01DX001 (ip), vehicle: saline with Tween-80 93 % of control | dose: 100.0 mg/kg/injection, schedule: Q04DX002 (ip), vehicle: alcohol 87 % of control | [1] 86 % of control | dose: 200.0 mg/kg/injection, schedule: Q01DX001 (ip), vehicle: saline with Tween-80 97 % of control | dose: 200.0 mg/kg/injection, schedule: Q04DX002 (ip), vehicle: alcohol 97 % of control | [2] 100 % of control | dose: 400.0 mg/kg/injection, schedule: Q01DX001 (ip), vehicle: saline with Tween-80 93 % of control | dose: 400.0 mg/kg/injection, schedule: Q04DX002 (ip), vehicle: alcohol 93 % of control | [3] 105 % of control

COc1ccc(C2(C#N)CC2)cc1
inactive: [4] 86 % of control | [1] 101 % of control | [5] 88 % of control | [2] 101 % of control | [6] 103 % of control | [3] 103 % of control

CCC(C(=O)O)C(O)(CC(=O)O)C(=O)O (stereo unspecified)
inactive: [7] 98 % of control | [8] 101 % of control | [9] 95 % of control

O=C1C=CC2(CCC23C=CC(=O)O3)O1 (stereo unspecified)
inactive: dose: 13.0 mg/kg/injection, schedule: Q01DX Z (ip), vehicle: saline 96 % of control | dose: 20.0 mg/kg/injection, schedule: Q01DX Z (ip), vehicle: saline 102 % of control | dose: 30.0 mg/kg/injection, schedule: Q01DX Z (ip), vehicle: saline 104 % of control | dose: 45.0 mg/kg/injection, schedule: Q01DX Z (ip), vehicle: saline 102 % of control and 109 % of control

ClCCC[S][Pb]([c]1ccccc1)([c]1ccccc1)[c]1ccccc1
inactive: dose: 25.0 mg/kg/injection, schedule: Q04DX002 (sc), vehicle: olive oil, sesame oil, peanut oil 100 % of control | dose: 50.0 mg/kg/injection, schedule: Q04DX002 (sc), vehicle: olive oil, sesame oil, peanut oil 116 % of control

CC1=C(Cl)C(=O)C(Cl)=C(C)C1=O
inactive: dose: 5.5 mg/kg/injection, schedule: Q01DX Z (ip), vehicle: methylcellulose (MC) 93 % of control | dose: 8.3 mg/kg/injection, schedule: Q01DX Z (ip), vehicle: methylcellulose (MC) 107 % of control | dose: 12.5 mg/kg/injection, schedule: Q01DX Z (ip), vehicle: methylcellulose (MC) 102 % of control

CN(Cc1ccccc1O)C1CC2CCC1(C)C2(C)C (stereo unspecified)
inactive: dose: 50.0 mg/kg/injection, schedule: Q04DX002 (ip), vehicle: saline 97 % of control | dose: 100.0 mg/kg/injection, schedule: Q04DX002 (ip), vehicle: saline 101 % of control

O=C(OC1COC(n2c(=O)oc3ccc(F)cc32)C(OC(=O)c2ccccc2)C1OC(=O)c1ccccc1)c1ccccc1 (stereo unspecified)
inactive: [10] 91 % of control | [11] 94 % of control | [12] 89 % of control | [13] 89 % of control | [14] 89 % of control | [15] 87 % of control

COC1CC(OS(=O)(=O)c2ccc(C)cc2)C(O)C(C)O1 (stereo unspecified)
inactive: [16] 103 % of control | [4] 96 % of control | [1] 100 % of control | [17] 94 % of control | [5] 94 % of control | [2] 100 % of control | [18] 100 % of control | [6] 96 % of control | [3] 97 % of control

CC(=O)C1=CN(c2ccccc2)COC1C (stereo unspecified)
inactive: dose: 50.0 mg/kg/injection, schedule: Q01DX009 (ip), vehicle: Klucel (hydroxypropylcellulose) (HPC) 107 % of control | [11] 91 % of control | [13] 100 % of control

COc1ccc(CCN=Cc2ccc3c(c2)Cc2ccccc2-3)cc1OC
inactive: [7] 105 % of control | [8] 108 % of control | [9] 90 % of control

CC(=O)OCC1=C(COC(C)=O)C2OC1C1OC(=O)OC21 (stereo unspecified)
inactive: dose: 75.0 mg/kg/injection, schedule: Q01DX009 (ip), vehicle: Klucel (hydroxypropylcellulose) (HPC) 97 % of control | [11] 105 % of control | dose: 150.0 mg/kg/injection, schedule: Q01DX009 (ip), vehicle: Klucel (hydroxypropylcellulose) (HPC) 92 % of control | [13] 97 % of control | dose: 300.0 mg/kg/injection, schedule: Q01DX009 (ip), vehicle: Klucel (hydroxypropylcellulose) (HPC) 104 % of control | [15] 101 % of control

O=C1OCc2cccc3cccc1c23
inactive: [1] 115 % of control | [2] 104 % of control

O=C1CC23CCC12CCCC3=O (stereo unspecified)
inactive: dose: 100.0 mg/kg/injection, schedule: Q04DX002 (ip), vehicle: saline with Tween-80 100 % of control | dose: 200.0 mg/kg/injection, schedule: Q04DX002 (ip), vehicle: saline with Tween-80 93 % of control | dose: 400.0 mg/kg/injection, schedule: Q04DX002 (ip), vehicle: saline with Tween-80 97 % of control

COc1cccc(/C=N\NC(=O)CCCC(=O)N/N=C/c2cccc(OC)c2)c1
inactive: dose: 50.0 mg/kg/injection, schedule: Q01DX001 (ip), vehicle: saline 87 % of control | [16] 90 % of control | [18] 103 % of control

O=C1c2cc(Cl)ccc2-c2c(F)cc(Cl)cc21
inactive: [10] 103 % of control | [12] 105 % of control | [14] 105 % of control

Cc1ccc(NC(=O)COc2ccc([N+](=O)[O-])cc2Cl)cc1S(=O)(=O)F
inactive: dose: 87.5 mg/kg/injection, schedule: Q04DX003 (ip), vehicle: gum acacia 97 % of control | dose: 175.0 mg/kg/injection, schedule: Q04DX003 (ip), vehicle: gum acacia 100 % of control | dose: 350.0 mg/kg/injection, schedule: Q04DX003 (ip), vehicle: gum acacia 94 % of control

CCCCCCCCCCCCCC[n+]1ccccc1
inactive: dose: 0.25 mg/kg/injection, schedule: Q04DX003 (ip), vehicle: saline 96 % of control | dose: 0.5 mg/kg/injection, schedule: Q01DX001 (ip), vehicle: saline 97 % of control | dose: 0.5 mg/kg/injection, schedule: Q04DX003 (ip), vehicle: saline 94 % of control | dose: 1.0 mg/kg/injection, schedule: Q01DX001 (ip), vehicle: saline 105 % of control | dose: 1.0 mg/kg/injection, schedule: Q04DX003 (ip), vehicle: saline 96 % of control | dose: 2.0 mg/kg/injection, schedule: Q01DX001 (ip), vehicle: saline 112 % of control | dose: 2.0 mg/kg/injection, schedule: Q04DX003 (ip), vehicle: saline 96 % of control | dose: 4.0 mg/kg/injection, schedule: Q04DX003 (ip), vehicle: saline 109 % of control | dose: 62.5 micrograms/kg/injection, schedule: Q01DX009 (ip), vehicle: saline 119 % of control | dose: 125.0 micrograms/kg/injection, schedule: Q01DX009 (ip), vehicle: saline 100 % of control | dose: 250.0 micrograms/kg/injection, schedule: Q01DX009 (ip), vehicle: saline 113 % of control | dose: 500.0 micrograms/kg/injection, schedule: Q01DX009 (ip), vehicle: saline 105 % of control | dose: 1000.0 micrograms/kg/injection, schedule: Q01DX009 (ip), vehicle: saline 110 % of control

Cc1ccc(N2CCN(CC(O)COc3ccccc3Cl)CC2)cc1 (stereo unspecified)
inactive: [16] 95 % of control | [17] 95 % of control | [18] 95 % of control

CC(=O)OCCc1ccccc1C
inactive: dose: 100.0 mg/kg/injection, schedule: Q04DX002 (ip), vehicle: Klucel (hydroxypropylcellulose) (HPC) 112 % of control | dose: 200.0 mg/kg/injection, schedule: Q04DX002 (ip), vehicle: Klucel (hydroxypropylcellulose) (HPC) 104 % of control | dose: 400.0 mg/kg/injection, schedule: Q04DX002 (ip), vehicle: Klucel (hydroxypropylcellulose) (HPC) 101 % of control

Source: PubChem BioAssay AID248 (DTP/NCI, 2004)
